EP1991554B1, “THIOPYR[…] COMPOUNDS, METHOD FOR PREPARING THEREOF AND COMPOSITIONS CONTAINING THEM” (C4T S.C. a.r.l., priority 2006, dated 2007)
Structures can show the parent of a compound that is named as a salt.

Columns and labels:
γδ T lymphocyte line = test: ELISA test for the production of TNFα in the γδ T lymphocyte line; format: cell-based, human; conditions: for EC50: Homo sapiens, T-lymphocyte, 24 h
Procedure: A buffy coat from a healthy donor with a high basal percentage of γδ T lymphocytes (approximately 6%) was selected for growth of the γδ T lymphocyte lines.
The PBMCs were separated out and cultured at a concentration of 1 x 10^6 cells/ml in the presence of IPP (160 ng/ml) and IL-2 (100 U/ml).
After 7 days incubation at 37°C with 5% CO2, 3 ml of medium were sampled and replaced with the same amount of fresh medium ennched with IL-2 (final concentration 100 U/ml).
After a further 7 days in the incubator an aliquot of the cultured cells was taken to label the membrane and measure the percentage of γδ T cells obtained from the expansion.
This cell line was then used to evaluate the production of TNFα following stimulation of the cells with the compounds under investigation, using an ELISA test.
In the ELISA test there were used cells from the line produced as disclosed above in a concentration of 2.5 x 10^5 cells/ml (5 x 10^4 cells/well).
The cells were then stimulated with the compounds under investigation and with isopentenyl pyrophosphate (IPP) as a reference at scalar doses.
After 24 hours the supernatants from the wells containing the stimulated cells were sampled and the ELISA test was carried out using the "Human TNFα Screening Set" kit (Endogen). The kit provides for treatment with an anti-TNFα biotinylate polyclonal antibody, the addition of peroxidase conjugated with streptavidine and quantitative determination using a chromogenic substrate. The plates were read spectrophotometrically at 450 nm.
Each compound was tested in duplicate.

[1] = test system: γδ T lymphocytes of peripheral blood mononucleate cells (PBMCs); test: Cytokine production assay on peripheral blood mononucleate cells (PBMCs), cytofluorimetry; format: cell-based, human; conditions: for activation at 10 µM / activation at 100 µM / activation at 1000 µM: Homo sapiens, PBMC, read-out: % increase in γδ T lymphocytes producing TNFα; for % increase in γδ T lymphocytes producing INFγ: IPP (10 µM) std = 100
Procedure: γδ T lymphocyte activation was tested by an assay involving the production of cytokines such as TNFα and IFNγ by the γδ T lymphocytes of peripheral blood mononucleate cells (PBMCs) from healthy donors (Poccia, F. et al., The Journal of Immunology 1997, 159, 6009-6017).
Mononucleate cells (PBMCs) were isolated from the peripheral blood of healthy donors, cultured at 37°C on a complete medium comprising RPMI 1640, 10% FCS, 1% L-glutamine, 1% penicillin-streptomycin in the presence of interleukin 2 (IL-2), T lymphocyte growth factor, and 5% CO2 in a controlled humidity environment, and then stimulated with isopentenyl pyrophosphate (IPP 10 µM) as a positive activation control and with various doses (10 µM, 100 µM) and 1000 µM) of compounds according to the invention, respectively.
Then it was performed a cytofluorimetric labelling using specific monoclonal antibodies (membrane labelling for the expansion and intra-cytoplasm labelling for the cytokines) and a cytofluorimetric measurement in order to establish the percentage of γδ T cells producing TNFα and IFNγ (cytokine production assay).

Vγ9Vδ2 cells = test: Peripheral blood mononucleate cell (PBMC) cellular expansion assay; format: cell-based, human; conditions: tenth day of culture
Procedure: The effect of the compounds of this invention on the expansion of γδ T lymphocytes was investigated through an assay carried out on γδ T lymphocytes originating from the peripheral blood mononucleate cells from healthy donors (PBMCs).
The PBMCs were separated by centrifuging (Ficoll) on whole blood from samples (residual samples) from 7 healthy donors.
In control experiments the cells were treated with IPP at the same concentrations and under the same Experimental conditions.
On the tenth day of culture the cells were recovered and counted by means of a living count with Trypan Blue, and labelled with the same anti-Vd2-FITC antibody, and finally tested by cytofluorimetry to evaluate the percentage of Vγ9Vδ2 cells.
The absolute number of Vγ9Vδ2 cells was calculated using the following formula: No. of Vγ9Vδ2 cells = (total absolute no.of cells after expansion x%of Vγ9Vδ2cells after expansion)/100. [formula]

alkaline phosphatase = test: Stability test in alkaline aqueous solution in the presence of alkaline phosphatase (enzyme hydrolysis), HPLC-MS; conditions: for resistance to hydrolysis: in words, summary of Table 1; for Percentage of non-hydrolysed compound: 2 mM, pH 8 TRIS-HCl buffer, alkaline phosphatase, ambient temperature
Procedure: The following compounds were selected for the stability tests in alkaline aqueous solution in the presence of alkaline phosphatase (SIGMA Phosphatase, alkaline-Agarose from calf intestine-P0762): [drawing 25] • Solution A: • pH 8 solution: TRIS-HCl buffer and 2 mM of MgCl2; • Solution B: • comparison versus solution A: 2 mM isopentenyl pyrophosphate (IPP) solution; • Solution C: • 2 mM isopentenyl thiopyrophosphate solution (Compound 8) of this invention into Solution A, • Solution D: • Solution of phosphatase enzyme immobilised on a solid substrate (agarose), 50 biological units into 10 ml of Solution A.
20 µl of Solution D were added to 0.5 ml of Solution B. The system was allowed to stand at ambient temperature under stirring. The solution was filtered to remove the enzyme and it was then analysed with HPLC-MS at predetermined time intervals (20, 30, 40, 50 and 60 minutes).
The same procedure was carried out with Solution C.

Compound | EC50 (γδ T lymphocyte line) [µM] | activation at 10 µM [1] [%] | activation at 100 µM [1] [%] | activation at 1000 µM [1] [%] | % increase in γδ T lymphocytes producing INFγ ([1]; PBMC/IL-2, 10 µM) [%] | % increase in γδ T lymphocytes producing INFγ ([1]; PBMC/IL-2, 100 µM) [%] | % increase in γδ T lymphocytes producing INFγ ([1]; PBMC/IL-2, 1000 µM) [%] | also measured
O=P(O)(O)OP(=O)(O)SCCC1CC1 [Compound 3, S-(2-cyclopropylethyl)ester of the trisodium salt of thiodiphosphoric acid] | 13 | 495 | 123 | 158 | – | – | – | –
C/C(=C\CSP(=O)(O)OP(=O)(O)O)CO [Compound 9, S-[(E)-4-hydroxy-3-methyl-2-butenyl]ester of the trisodium salt of thiodiphosphoric acid] | 0.0048 | 82.3 | 175 | 464 | – | – | – | EC50 relative to the EC50 for IPP (γδ T lymphocyte line; production of TNFα, γδ T lymphocyte line): 1000 times; Expansion Index (Vγ9Vδ2 cells; Donor A): 129.28; Expansion Index (Vγ9Vδ2 cells; Donor B): 80.96; Expansion Index (Vγ9Vδ2 cells; Donor C): 5.30; Expansion Index (Vγ9Vδ2 cells; Donor D): 59.10; Expansion Index (Vγ9Vδ2 cells; Donor E): 624.02; Expansion Index (Vγ9Vδ2 cells; Donor F): 35.37; Expansion Index (Vγ9Vδ2 cells; Donor G): 42.09; activity (γδ T cells producing cytokines) ([1]; in words, at 100 and 1000 µM): a very clear increase
C[C@H](O)CCSP(=O)(O)OP(=O)(O)O [Compound 6, S-(3-hydroxybutyl)ester of the trisodium salt of biodiphosphoric acid] | 75 | 40 | 114 | 310 | – | – | – | –
C=CCOCCSP(=O)(O)OP(=O)(O)O [Compound 4, S-[2-(allyloxy)ethyl]ester of the trisodium salt of thiodiphosphoric acid] | 10 | 70.7 | 130 | 299 | – | – | – | –
C=C(C)CCO[P@@](=O)(O)OP(=O)(O)O [IPP, isopentenyl pyrophosphate, reference compound] | – | 100 | – | – | 100 | – | – | resistance to hydrolysis (alkaline phosphatase): degrades rapidly; Percentage of non-hydrolysed compound (alkaline phosphatase; t = 0 min): 94%; Percentage of non-hydrolysed compound (alkaline phosphatase; t = 20 min): 48%; Percentage of non-hydrolysed compound (alkaline phosphatase; t = 30 min): 54%; Percentage of non-hydrolysed compound (alkaline phosphatase; t = 60 min): 27%
O=P(O)(O)OP(=O)(O)SCCCCCl [Compound 1, S-(4-chlorobutyl) ester of the trisodium salt of thiodiphosphoric acid] | 100 | 81 | 127 | 81.5 | 131 | 94 | 132 | –
C=C(C)CCSP(=O)(O)OP(=O)(O)O [Compound 8, S-(3-methyl-3-butenyl)ester of the triammonium salt of thiodiphosphoric acid] | 3.75 | 39 | 92.6 | 174 | 21 | 865 | 182 | resistance to hydrolysis (alkaline phosphatase): very much more resistant to hydrolysis; Percentage of non-hydrolysed compound (alkaline phosphatase; t = 0 min): 100%; Percentage of non-hydrolysed compound (alkaline phosphatase; t = 20 min): 90%; Percentage of non-hydrolysed compound (alkaline phosphatase; t = 30 min): 90%; Percentage of non-hydrolysed compound (alkaline phosphatase; t = 40 min): 90%; Percentage of non-hydrolysed compound (alkaline phosphatase; t = 50 min): 90%; Percentage of non-hydrolysed compound (alkaline phosphatase; t = 60 min): 90%
O=P(O)(O)OP(=O)(O)SCCOCCCl [Compound 2, S-[2-(2-chloroethoxy)ethyl] ester of the trisodium salt of thiodiphosphoric acid] | 0.39 | 60.4 | 71.8 | 765 | 56.4 | 67 | 97.3 | –
